Source: US20210017295A1, “BISPECIFIC BINDING AGENTS AND USES THEREOF” (MEMORIAL SLOAN KETTERING CANCER CENTER, priority 2018, published 2021)
Values joined by “and” are separate entries in the source; they are usually repeats but may differ in a detail not shown here. Identical values can stand only once. Like-named read-outs stand apart in the source and are kept apart here.

System: s.c. HER2(+) BT-474 tumors
Type: in vivo, mouse
Conditions: 24 h p.i.
[1] = PRIT + CA 62.5 μg, 55.5 MBq (~300 pmol), mean ± SEM
[2] = PRIT + CA 62.5 μg, ~5.6 MBq (~30 pmol), mean ± SEM
[3] = PRIT, CA 0% (saline), mean ± SD
[4] = PRIT, CA 7.5% w/w 18.75 μg, mean ± SD
[5] = PRIT, CA 14% w/w 37.5 μg, mean ± SD
[6] = PRIT, CA 28% w/w 70 μg, mean ± SD

Nc1ccc(CC2CN(CC(=O)[O-])CCN(CC(=O)[O-])CCN(CC(=O)[O-])CCN2CC(=O)[O-])cc1.[177Lu+3] (centres unmarked) [^177Lu-DOTA-Bn]
^177Lu activity in Blood [1]: 0.29±0.05 % IA/g | ^177Lu activity in Bone [1]: 0.04 ± 0.01 % IA/g | ^177Lu activity in Heart [1]: 0.11 ± 0.02 % IA/g | ^177Lu activity in Kidneys [1]: 0.56±0.08 % IA/g | ^177Lu activity in Large Int. [1]: 0.20 ± 0.11 % IA/g | ^177Lu activity in Liver [1]: 0.33 ± 0.04 % IA/g | ^177Lu activity in Lungs [1]: 0.20 ± 0.02 % IA/g | ^177Lu activity in Muscle [1]: 0.04 ± 0.01 % IA/g | ^177Lu activity in Small Int. [1]: 0.05 ± 0.01 % IA/g | ^177Lu activity in Spleen [1]: 0.22 ± 0.07 % IA/g | ^177Lu activity in Stomach [1]: 0.04 ± 0.01 % IA/g | ^177Lu activity in Tumor [1]: 5.53±0.27 % IA/g | ^177Lu activity in Blood [2]: 0.28±0.09 % IA/g | ^177Lu activity in Bone [2]: 0.04 ± 0.01 % IA/g | ^177Lu activity in Heart [2]: 0.07 ± 0.02 % IA/g | ^177Lu activity in Kidneys [2]: 0.73±0.05 % IA/g | ^177Lu activity in Large Int. [2]: 0.18 ± 0.01 % IA/g | ^177Lu activity in Liver [2]: 0.27 ± 0.07 % IA/g | ^177Lu activity in Lungs [2]: 0.20 ± 0.05 % IA/g | ^177Lu activity in Muscle [2]: 0.06 ± 0.01 % IA/g | ^177Lu activity in Small Int. [2]: 0.05 ± 0.01 % IA/g | ^177Lu activity in Spleen [2]: 0.60 ± 0.21 % IA/g | ^177Lu activity in Stomach [2]: 0.06 ± 0.01 % IA/g | ^177Lu activity in Tumor [2]: 7.58±0.78 % IA/g | ^177Lu activity in Blood (PRIT + no CA, mean ± SEM): 4.95 ± 0.58 % IA/g | ^177Lu activity in Bone (PRIT + no CA, mean ± SEM): 0.39 ± 0.08 % IA/g | ^177Lu activity in Heart (PRIT + no CA, mean ± SEM): 1.14 ± 0.14 % IA/g | ^177Lu activity in Kidneys (PRIT + no CA, mean ± SEM): 2.31 ± 0.26 % IA/g | ^177Lu activity in Large Int. (PRIT + no CA, mean ± SEM): 0.58 ± 0.06 % IA/g | ^177Lu activity in Liver (PRIT + no CA, mean ± SEM): 1.85 ± 0.15 % IA/g | ^177Lu activity in Lungs (PRIT + no CA, mean ± SEM): 2.11 ± 0.23 % IA/g | ^177Lu activity in Muscle (PRIT + no CA, mean ± SEM): 0.38 ± 0.04 % IA/g | ^177Lu activity in Small Int. (PRIT + no CA, mean ± SEM): 0.58 ± 0.06 % IA/g | ^177Lu activity in Spleen (PRIT + no CA, mean ± SEM): 1.00 ± 0.11 % IA/g | ^177Lu activity in Stomach (PRIT + no CA, mean ± SEM): 0.34 ± 0.04 % IA/g | ^177Lu activity in Tumor (PRIT + no CA, mean ± SEM): 19.94±1.7 % IA/g and 19.94 ± 1.77 % IA/g | Tumor-to-tissue ratio, Blood [3]: 4.0±1.2 | Tumor-to-tissue ratio, Bone [3]: 50.8 ± 22.7 | Tumor-to-tissue ratio, Heart [3]: 17.5 ± 5.4 | Tumor-to-tissue ratio, Kidneys [3]: 8.6 ± 2.5 | Tumor-to-tissue ratio, Large Int. [3]: 34.4 ± 9.3 | Tumor-to-tissue ratio, Liver [3]: 10.8 ± 2.6 | Tumor-to-tissue ratio, Lungs [3]: 9.5 ± 2.6 | Tumor-to-tissue ratio, Muscle [3]: 52.1 ± 15.2 | Tumor-to-tissue ratio, Small Int. [3]: 34.5 ± 9.3 | Tumor-to-tissue ratio, Spleen [3]: 19.9 ± 5.5 | Tumor-to-tissue ratio, Stomach [3]: 59.1 ± 18.8 | ^177Lu activity in Blood [3]: 4.95±1.17 % IA/g | ^177Lu activity in Bone [3]: 0.39 ± 0.16 % IA/g | ^177Lu activity in Heart [3]: 1.14 ± 0.29 % IA/g | ^177Lu activity in Kidneys [3]: 2.31 ± 0.52 % IA/g | ^177Lu activity in Large Int. [3]: 0.58 ± 0.12 % IA/g | ^177Lu activity in Liver [3]: 1.85 ± 0.30 % IA/g | ^177Lu activity in Lungs [3]: 2.11 ± 0.45 % IA/g | ^177Lu activity in Muscle [3]: 0.38 ± 0.09 % IA/g | ^177Lu activity in Small Int. [3]: 0.58 ± 0.12 % IA/g | ^177Lu activity in Spleen [3]: 1.00 ± 0.21 % IA/g | ^177Lu activity in Stomach [3]: 0.34 ± 0.09 % IA/g | ^177Lu activity in Tumor [3]: 19.94±3.54 % IA/g | Tumor-to-tissue ratio, Blood [4]: 7.1 ± 4.1 | Tumor-to-tissue ratio, Bone [4]: 80.6 ± 61.9 | Tumor-to-tissue ratio, Heart [4]: 16.0 ± 9.6 | Tumor-to-tissue ratio, Kidneys [4]: 9.7 ± 6.0 | Tumor-to-tissue ratio, Large Int. [4]: 29.9 ± 10.7 | Tumor-to-tissue ratio, Liver [4]: 15.0 ± 7.8 | Tumor-to-tissue ratio, Lungs [4]: 15.8 ± 7.9 | Tumor-to-tissue ratio, Muscle [4]: 67.5 ± 20.1 | Tumor-to-tissue ratio, Small Int. [4]: 33.7 ± 19.2 | Tumor-to-tissue ratio, Spleen [4]: 12.6 ± 3.3 | Tumor-to-tissue ratio, Stomach [4]: 59.2 ± 17.0 | ^177Lu activity in Blood [4]: 1.03 ± 0.58 % IA/g | ^177Lu activity in Bone [4]: 0.09 ± 0.07 % IA/g | ^177Lu activity in Heart [4]: 0.45 ± 0.27 % IA/g | ^177Lu activity in Kidneys [4]: 0.75 ± 0.46 % IA/g | ^177Lu activity in Large Int. [4]: 0.24 ± 0.08 % IA/g | ^177Lu activity in Liver [4]: 0.49 ± 0.25 % IA/g | ^177Lu activity in Lungs [4]: 0.46 ± 0.23 % IA/g | ^177Lu activity in Muscle [4]: 0.11 ± 0.03 % IA/g | ^177Lu activity in Small Int. [4]: 0.22 ± 0.12 % IA/g | ^177Lu activity in Spleen [4]: 0.58 ± 0.14 % IA/g | ^177Lu activity in Stomach [4]: 0.12 ± 0.03 % IA/g | ^177Lu activity in Tumor [4]: 7.26 ± 0.55 % IA/g | Tumor-to-tissue ratio, Blood [5]: 13.1 ± 5.1 | Tumor-to-tissue ratio, Bone [5]: 159.0 ± 66.7 | Tumor-to-tissue ratio, Heart [5]: 45.1 ± 18.9 | Tumor-to-tissue ratio, Kidneys [5]: 8.7 ± 3.2 | Tumor-to-tissue ratio, Large Int. [5]: 18.9 ± 10.9 | Tumor-to-tissue ratio, Liver [5]: 14.6 ± 5.3 | Tumor-to-tissue ratio, Lungs [5]: 19.6 ± 7.4 | Tumor-to-tissue ratio, Muscle [5]: 84.5 ± 37.6 | Tumor-to-tissue ratio, Small Int. [5]: 39.8 ± 21.2 | Tumor-to-tissue ratio, Spleen [5]: 9.8 ± 4.4 | Tumor-to-tissue ratio, Stomach [5]: 50.1 ± 20.7 | ^177Lu activity in Blood [5]: 0.52 ± 0.08 % IA/g | ^177Lu activity in Bone [5]: 0.04 ± 0.01 % IA/g | ^177Lu activity in Heart [5]: 0.15 ± 0.03 % IA/g | ^177Lu activity in Kidneys [5]: 0.78 ± 0.09 % IA/g | ^177Lu activity in Large Int. [5]: 0.36 ± 0.16 % IA/g | ^177Lu activity in Liver [5]: 0.46 ± 0.04 % IA/g | ^177Lu activity in Lungs [5]: 0.35 ± 0.05 % IA/g | ^177Lu activity in Muscle [5]: 0.08 ± 0.02 % IA/g | ^177Lu activity in Small Int. [5]: 0.17 ± 0.07 % IA/g | ^177Lu activity in Spleen [5]: 0.69 ± 0.20 % IA/g | ^177Lu activity in Stomach [5]: 0.14 ± 0.03 % IA/g | ^177Lu activity in Tumor [5]: 6.76 ± 2.39 % IA/g | Tumor-to-tissue ratio, Blood [6]: 25.6 ± 13.9 | Tumor-to-tissue ratio, Bone [6]: 63.5 ± 97.0 | Tumor-to-tissue ratio, Heart [6]: 63.5 ± 35.2 | Tumor-to-tissue ratio, Kidneys [6]: 9.4 ± 4.3 | Tumor-to-tissue ratio, Large Int. [6]: 37.7 ± 18.5 | Tumor-to-tissue ratio, Liver [6]: 21.2 ± 9.7 | Tumor-to-tissue ratio, Lungs [6]: 28.5 ± 14.3 | Tumor-to-tissue ratio, Muscle [6]: 84.6 ± 45.2 | Tumor-to-tissue ratio, Small Int. [6]: 99.7 ± 47.9 | Tumor-to-tissue ratio, Spleen [6]: 9.6 ± 4.9 | Tumor-to-tissue ratio, Stomach [6]: 133.0 ± 76.7 | ^177Lu activity in Blood [6]: 0.27 ± 0.08 % IA/g | ^177Lu activity in Bone [6]: 0.11 ± 0.16 % IA/g | ^177Lu activity in Heart [6]: 0.11 ± 0.04 % IA/g
